Measurements taken from patent US10472341B2, “Bicyclic tetrahydrothiazepine derivatives useful for the treatment of neoplastic and/or infectious diseases” (APEIRON BIOLOGICS AG, priority 2015, dated 2019).

These compounds were tested on aCD3/aCD28-stimulated human CD4+-T-cells (assay: IL-2 production and activation markers in aCD3/aCD28 stimulated isolated human CD4+-T-cells). Details: IL-2 production at 3 μM compound.
Format: cell-based
Method: • Buffy coat content was transferred to sterile plastic bottle and filled up to 480 ml with PBS, and distributed equally to 16×50 ml tubes (30 ml/tube) • Underlayed with ˜11 ml Lymphoprep and centrifuged 20 min (2200 rpm) • The interphase containing lymphocytes was taken off with transfer pipette, cells were washed twice with PBS and pooled to one tube to determine cell count (Coulter Diff ACT) Isolation of Immune Cell Subfractions from PBMCs by MACS • PBMCs were resuspended in MACS buffer (80 μl MACS-buffer/10^7 cells) and cells were isolated with Auto-MACS device using respective kits following manufacturer's recommendations TCR Stimulation and Measurement of T Cell Activation
Isolated T cells were plated in Xvivo medium at 1.5*10 ^5 cells per in 96 well culture plates and TCR-stimulated with anti-CD3/28 mAbs in the presence of compound as indicated. Cytokine production was determined at 24 h or 48 h following TCR stimulation in cell culture supernatants using commercially available ELISA kits (BD and eBioscience) as recommended by the manufacturer. T cell proliferation and CD25 expression (CD25-PC5 reagent purchased from Beckman Coulter) was determined by flow cytometry (Beckman-Coulter FC500) and analysed with Kaluza Software. For measurement of CD69 expression, isolated CD4 and CD8 T cells were plated in Xvivo medium at […] per in 96 well culture plates and TCR-stimulated with anti-CD3/28 mAbs in the presence of compound. CD69 expression was determined at 24 h following TCR stimulation by flow cytometry (CD4eF450, CD8APCeF780 and CD69-PC7 reagent purchased from eBioscience) and analysed with Kaluza Software.
Buffy coats were obtained from Austrian Red Cross, diluted 3 fold with PBS and layered onto an isotonic Ficoll separating solution d=1.077 g/m in 50 ml centrifuge tubes. The tubes were centrifuged at 914 g for 25 min at room temperature with the brakes off. The PBMC layer was removed and washed twice with ice-cold PBS. CD4 T cells were isolated using CD4 microbeads (Milteny) and the AutoMACS device following manufacturer's instructions.
Compound examples of the present invention were classified according to the following activity criteria and are listed in Table 4a: • Activity Class A: IL-2 production at 3 μM compound concentration >10 ng/mL • Activity Class B: IL-2 production at 3 μM compound concentration between 2-10 ng/mL • Activity Class C: IL-2 production at 3 μM compound concentration between 2-fold increase as compared to mean IL-2 production of stimulated cells in the absence of compounds and <2 ng/mL

SMILES | Activity Class CD4+
Cl.N[C@H]1CSc2cc(F)c(C(=O)NNc3ccc(F)cc3)cc2N(Cc2ccc(Cl)cc2)C1=O [Example 52, (3R)-3-amino-5-[(4-chlorophenyl)methyl]-8-fluoro-N′-(4-fluorophenyl)-4-oxo-2,3,4,5-tetrahydro-1,5-benzothiazepine-7-carbohydrazide hydrochloride] | C (IL-2 production at 3 μM compound concentration between 2-fold increase as compared to mean IL-2 production of stimulated cells in the absence of compounds and <2 ng/mL)
CCCCNC(=O)c1ccc2c(c1)N(Cc1ccc(C(N)=O)cc1)C(=O)[C@@H](N)CS2.Cl [Example 47, (3R)-3-amino-N-butyl-5-[(4-carbamoylphenyl)methyl]-4-oxo-2,3,4,5-tetrahydro-1,5-benzothiazepine-7-carboxamide hydrochloride] | C (IL-2 production at 3 μM compound concentration between 2-fold increase as compared to mean IL-2 production of stimulated cells in the absence of compounds and <2 ng/mL)
Cl.N[C@H]1CSc2cc(F)c(C(=O)NCc3ccccc3)cc2N(Cc2ccc(OC(F)(F)F)cc2)C1=O [Example 16, (3R)-3-amino-N-benzyl-8-fluoro-4-oxo-5-{[4-(trifluoromethoxy)phenyl]methyl}-2,3,4,5-tetrahydro-1,5-benzothiazepine-7-carboxamide hydrochloride] | B (IL-2 production at 3 μM compound concentration between 2-10 ng/mL)
CCCCNC(=O)c1cc2c(cc1F)SC[C@H](N)C(=O)N2Cc1ccc2ccccc2n1.Cl.Cl [Example 112, (3R)-3-amino-N-butyl-8-fluoro-4-oxo-5-(quinolin-2-ylmethyl)-2,3,4,5-tetrahydro-1,5-benzothiazepine-7-carboxamide dihydrochloride] | C (IL-2 production at 3 μM compound concentration between 2-fold increase as compared to mean IL-2 production of stimulated cells in the absence of compounds and <2 ng/mL)
Cl.N[C@H]1CSc2cc(F)c(C(=O)NC3CCOCC3)cc2N(Cc2ccc(OC(F)(F)F)cc2)C1=O [Example 14, (3R)-3-amino-8-fluoro-N-(oxan-4-yl)-4-oxo-5-{[4-(trifluoromethoxy)phenyl]methyl}-2,3,4,5-tetrahydro-1,5-benzothiazepine-7-carboxamide hydrochloride] | C (IL-2 production at 3 μM compound concentration between 2-fold increase as compared to mean IL-2 production of stimulated cells in the absence of compounds and <2 ng/mL)
CC(C)CONC(=O)c1ccc2c(c1)N(Cc1ccc(Cl)cc1)C(=O)[C@@H](N)CS2(=O)=O.Cl [Example 81, (3R)-3-amino-5-[(4-chlorophenyl)methyl]-N-(2-methylpropoxy)-1,1,4-trioxo-2,3,4,5-tetrahydro-1λ^6,5-benzothiazepine-7-carboxamide hydrochloride] | C (IL-2 production at 3 μM compound concentration between 2-fold increase as compared to mean IL-2 production of stimulated cells in the absence of compounds and <2 ng/mL)
CC(C)CONC(=O)c1ccc2c(c1)N(Cc1ccc(Cl)cc1)C(=O)[C@@H](N)CS2.Cl [Example 62, (3R)-3-amino-5-[(4-chlorophenyl)methyl]-N-(2-methylpropoxy)-4-oxo-2,3,4,5-tetrahydro-1,5-benzothiazepine-7-carboxamide hydrochloride] | C (IL-2 production at 3 μM compound concentration between 2-fold increase as compared to mean IL-2 production of stimulated cells in the absence of compounds and <2 ng/mL)
Cl.N[C@H]1CS(=O)(=O)c2ccc(C(=O)NOC3CCCCC3)cc2N(Cc2ccc(Cl)cc2)C1=O [Example 90, (3R)-3-amino-5-[(4-chlorophenyl)methyl]-N-(cyclohexyloxy)-1,1,4-trioxo-2,3,4,5-tetrahydro-1λ^6,5-benzothiazepine-7-carboxamide hydrochloride] | A (IL-2 production at 3 μM compound concentration >10 ng/mL)
Cl.N[C@H]1CSc2ccc(C(=O)NC3CCOCC3)cc2N(Cc2ccc(OC(F)(F)F)cc2)C1=O [Example 8, (3R)-3-amino-N-(oxan-4-yl)-4-oxo-5-{[4-(trifluoromethoxy)phenyl]methyl}-2,3,4,5-tetrahydro-1,5-benzothiazepine-7-carboxamide hydrochloride] | C (IL-2 production at 3 μM compound concentration between 2-fold increase as compared to mean IL-2 production of stimulated cells in the absence of compounds and <2 ng/mL)
CC(C)(C)ONC(=O)c1ccc2c(c1)N(Cc1ccc(Cl)cc1)C(=O)[C@@H](N)CS2(=O)=O.Cl [Example 97, (3R)-3-amino-N-(tert-butoxy)-5-[(4-chlorophenyl)methyl]-1,1,4-trioxo-2,3,4,5-tetrahydro-1λ^6,5-benzothiazepine-7-carboxamide hydrochloride] | C (IL-2 production at 3 μM compound concentration between 2-fold increase as compared to mean IL-2 production of stimulated cells in the absence of compounds and <2 ng/mL)
Cl.N[C@H]1CS(=O)(=O)c2ccc(C(=O)NOCC3CCCCC3)cc2N(Cc2ccc(Cl)cc2)C1=O [Example 91, (3R)-3-amino-5-[(4-chlorophenyl)methyl]-N-(cyclohexylmethoxy)-1,1,4-trioxo-2,3,4,5-tetrahydro-1λ^6,5-benzothiazepine-7-carboxamide hydrochloride] | B (IL-2 production at 3 μM compound concentration between 2-10 ng/mL)
CCCCNC(=O)c1ccc2c(c1)N(Cc1ccc(N3CCOCC3)cc1)C(=O)[C@@H](N)CS2.Cl [Example 13, (3R)-3-amino-N-butyl-5-{[4-(morpholin-4-yl)phenyl]methyl}-4-oxo-2,3,4,5-tetrahydro-1,5-benzothiazepine-7-carboxamide hydrochloride] | C (IL-2 production at 3 μM compound concentration between 2-fold increase as compared to mean IL-2 production of stimulated cells in the absence of compounds and <2 ng/mL)
N[C@H]1CSc2ccc(C(=O)NCC3CCOCC3)cc2N(Cc2ccc(F)cc2)C1=O [Example 45, (3R)-3-amino-5-[(4-fluorophenyl)methyl]-N-(oxan-4-ylmethyl)-4-oxo-2,3,4,5-tetrahydro-1,5-benzothiazepine-7-carboxamide] | C (IL-2 production at 3 μM compound concentration between 2-fold increase as compared to mean IL-2 production of stimulated cells in the absence of compounds and <2 ng/mL)
Cl.N[C@H]1CSc2ccc(C(=O)NCc3ccc(F)cc3)cc2N(Cc2ccc(-c3csnn3)cc2)C1=O [Example 32, (3R)-3-amino-N-[(4-fluorophenyl)methyl]-4-oxo-5-{[4-(1,2,3-thiadiazol-4-yl)phenyl]-methyl}-2,3,4,5-tetrahydro-1,5-benzothiazepine-7-carboxamide hydrochloride] | C (IL-2 production at 3 μM compound concentration between 2-fold increase as compared to mean IL-2 production of stimulated cells in the absence of compounds and <2 ng/mL)
Cl.N[C@H]1CS(=O)(=O)c2cc(F)c(C(=O)NOc3ccccc3)cc2N(Cc2ccc(Cl)cc2)C1=O [Example 76, (3R)-3-amino-5-[(4-chlorophenyl)methyl]-8-fluoro-1,1,4-trioxo-N-phenoxy-2,3,4,5-tetrahydro-1λ^6,5-benzothiazepine-7-carboxamide hydrochloride] | C (IL-2 production at 3 μM compound concentration between 2-fold increase as compared to mean IL-2 production of stimulated cells in the absence of compounds and <2 ng/mL)
